Data set [1] has as its system MMP1 expression in primary HTM cells. Briefly: Endogenous MMP1 expression in glucocorticoid-treated primary HTM cells (real-time TaqMan PCR). In kind it is cell-based, human. The protocol: To generate primary HTM cells, the trabecular meshwork tissue was dissected from residual cornea rims after surgical corneal transplantation at the University of North Carolina Eye Clinic, Chapel Hill, N.C., United States of America. Trabecular meshworks were isolated from surrounding tissue, cut into small pieces and treated with 1 mg/ml collagenase type IV (Worthington, Lakewood, N.J., United States of America), as previously described (Vittitow et al., Mol Via 2002; 8:32-44). Cells were maintained at 37° C., 7% CO2 in MEM Richter's modification medium (HyClone, Thermo Fisher Scientific, Waltham, Mass., United States of America) supplemented with 20% FBS and 50 ug/ml gentamicin (Gibco Invitrogen, Carlsbad, Calif., United States of America). At confluency, cells were passed and maintained in the same medium but with 10% FBS (complete medium). All cells were used at passages 4 to 6. These outflow pathway cultures include cells from the three distinct regions of the trabecular meshwork plus cells lining the Schlemm's canal (SC). Because most of the cells in these cultures come from the trabecular meshwork they are commonly referred to as trabecular meshwork cells. The cells used in this study were from a person (HTM-109), a person (HTM-95), a person (HTM-106) and a person (HTM-140).
Drug treatments on the HTM cells were conducted in complete media. HTM cells were grown to pre-confluency and exposed to drugs as follows. Treatment with dexamethasone (DEX; Sigma, St. Louis, Mo., United States of America) was conducted at a final concentration of 0.1 uM. DEX was reconstituted in absolute ethanol at 0.1 mM and diluted 1,000-fold into complete media every 48 to 72 hours for the duration of the experiment. Treatment with triamcinolone acetonide (Kenacort-A; Bristol-Myers Squibb, New York, N.Y., United States of America) was performed at a final concentration of 0.1 mg/ml. Kenacort-A 40 mg/ml suspension was well mixed and diluted into complete medium 400-fold at the time of use. The concentration of 0.1 mg/ml triamcinolone acetonide was chosen because intravitreal injections of 1 mg/ml are widely used in the clinical setting, which would result in a lower concentration of the steroid in the aqueous humor. In addition, the concentration of 0.1 mg/ml has been successfully studied in trabecular meshwork cells (Fan B J et al., Invest Ophthalmol Vis Sci. 2008; 49:1886-1897). Treatment with prednisolone was conducted at a final concentration of 200 uM (80 μg/ml). Prednisolone 21-acetate (Sigma) was reconstituted in ethanol at 200 mM (80 mg/ml) as a suspension and mixed well prior dilution of 1,000-fold into the culture medium. The drugs were exposed to the cells for the period of time described in results. Untreated control dishes received the same volume of absolute ethanol (drug vehicle) under identical conditions.
HTM cells were scraped from tissue culture dishes with guanidine thiocyanate buffer (RLT, Qiagen, Valencia, Calif., United States of America). Total RNA was extracted by loading the solution onto a QIA Shredder™ column (Qiagen) and continued by the use of the RNeasy Mini kit with on-column RNase-free DNAse digestion according to manufacturer's recommendations (Qiagen). Purified RNA was eluted in 30 ul RNase-free water and concentration measured with a NanoDrop ND-100 spectrophotometer (Thermo Fisher Scientific). For the tissue, human trabecular meshworks were excised from one week RNAlater (Ambion Applied Biosystems, Austin, Tex., United States of America) immersed anterior segments. One half of the isolated trabecular meshwork tissue was homogenized on 350 μl of RLT and RNA extraction continued as described for the cells. Recoveries were between 1.4 to 2 ug of RNA per human trabecular meshwork. […]

For another data set, the system named is sheep eyes. The conditions noted are these: cited from earlier work.
Data set [2] relates to sheep eyes treated with triamcinolone or prednisolone. The data set can be described thus: IOP in sheep given triamcinolone in one eye and prednisolone in the other, with Ad vector. In kind it is in vivo, sheep (Ovis aries). The text has this: After determining the baseline measurement of IOP over the course of several days, two drops of 0.5% prednisolone acetate (Ultracortenol; Novartis Ophthalmics, Hettlingen, Switzerland) was topically instilled 3-times daily at 7 AM, 2 PM, and 7 PM for durations that lasted for 10-15 days depending on the experiment. In some experiments, prednisolone was instilled bilaterally; in others only one eye received the corticosteroid.
The injection procedure took less than 30 seconds.
Additional experiments (employing 2 separate protocols, each on one sheep) tested the effects of the injection of Ad virus carrying active MMP1 transgene on the IOP of contralateral eyes treated with unilateral triamcinolone and unilateral prednisolone. In the first protocol of this set, one eye of a sheep was administered triamcinolone via a sub-Tenon injection two weeks before the start of IOP measurements. The point at which IOP measurements were initiated was designated “Day 0” of the experiment. […] After recording these measurements, thrice daily instillations of prednisolone were begun on eye OS. Three-days later, when the IOP's of both eyes were nearly identical, Ad virus carrying active MMP1 transgene was bilaterally injected into the anterior chambers of the eyes. […] At the point of virus injection, IOP of eye OD had been elevated for 17 days; after virus injection, IOP was reduced up to Day 24. […]

Data set [3] deals with sheep eyes with triamcinolone-induced ocular hypertension. Particulars: for IOP on Day 4 after bilateral sub-Tenon injection: n=4, before virus. The protocol: All animal experiments were performed in accordance with the Association for Research in Vision and Ophthalmology (ARVO) guidelines. A total of 18 healthy (female) sheep (Corriedale breed) between 12 and 24 months of age, and weighing 35 to 40 kg, were selected from a local ranch in Corrientes, Argentina for this study. The eyes and general health of the animals were considered normal by an ophthalmologist and a veterinarian, respectively. Sheep were tagged for individual identification on their ear lobes and herded from pasture whenever it was necessary to 1) topically instill prednisolone, 2) inject a sub-Tenon depot of triamcinolone acetonide, 3) inject adenoviral vectors carrying the MMP1 transgene intracamerally via the cornea, or 4) measure IOP by applanation tonometry. To apply prednisolone, the sheep were guided into a funnel corral ending in a loose-fitting yoke. This arrangement allowed movement and holding of the head by one person while another instilled the drops. To measure IOP with a Perkins tonometer, the sheep were also guided into the funnel corral and then into the neck yoke. For the sub-Tenon injection of triamcinolone, and the trans-corneal injections of adenoviral vectors, sheep were anesthetized topically. Between all procedures, the sheep were free to pasture.
In those sheep in which triamcinolone was used to induce ocular hypertension, the following general protocol was applied. Two drops of proparacaine (0.5%) were topically instilled to the ocular surface. Then, a single 1-ml injection of sterile triamcinolone acetonide (40 mg/ml, or 4%; Bristol-Myers Squibb Co., Princeton, N.J., United States of America) was administered via sub-Tenon injection using a 30G needle inserted 5 mm from the limbus.
For the injections, the distance from the limbus was determined from the width of a 5 mm×30 mm Schirmer strip that was held between the limbus and the injection site. The conjunctiva at the injection site was grasped with fine forceps and an initial oblique conjunctival puncture was made with the needle bevel facing upwards. […] The needle was pushed through Tenon's capsule until the tip reached the sclera (as determined by feel). Care was taken to avoid puncturing the sclera itself. Also, since Tenon's capsule consists of several layers, care was also taken to administer a sub-Tenon (to create a juxta-scleral depot), and not an intra-Tenon's injection. Immediately following the injection the needle was rapidly withdrawn. The volume injected (1 ml) yielded a characteristic 180°-240° quasi-donut-shaped bolus of fluid around the limbus. Each injected eye then received drops of TOBREX® (tobramycin ophthalmic solution, 0.3%, Alcon Laboratories, Inc., Fort Worth, Tex., United States of America).
Animals were led to a funnel corral and their heads were suitably oriented within a neck yoke to enable an ophthalmologist to measure IOP with the Perkins tonometer. Before the IOP measurement, 2 drops of topical 0.5% proparacaine (Alcon Argentina) followed by 2 drops of 0.25% fluorescein were instilled. Two sets of measurements were taken on each eye alternating first one eye and then the other. All IOP measurements were taken between 2 PM and 4 PM every 2 or 3 days. The Perkins tonometry readings were converted to mmHg as described in detail previously (Kass et al., Arch Ophthalmol. 2002; 120:701-713).
Details of the design, construction, characterization and titration of the steroid-inducible MMP1 adenoviruses are provided in Example 2, above. At the time of viral administration, an Eppendorf™ tube containing the frozen virus suspension was thawed in the field as the sheep were immobilized within a narrow passage ending in a yoke. Two drops of topical proparacaine 0.5% (Alcon, Argentina) were instilled on the eyes as an anesthetic. Following this 30 μl of the virus suspension was injected into the eye using a Hamilton syringe with a 28G needle.

Structures are written as SMILES. Where “and” joins values, the source holds several entries; their conditions need not be identical. Identical values can stand only once. Like-named read-outs stand apart in the source and are kept apart here.

Regarding `C[C@@H]1C[C@H]2[C@@H]3CCC4=CC(=O)C=C[C@]4(C)[C@@]3(F)[C@@H](O)C[C@]2(C)[C@@]1(O)C(=O)CO` [DEX, dexamethasone], the “MMP1 expression, RQ values (18S normalized MMP1 cDNA)” value in data set [1] (0.1 μM DEX, 3 days, HTM-109 cells) came to 0.03±0.0002; in data set [1] (0.1 μM DEX, 6 days, HTM-109 cells), 0.002±0.0002; in data set [1] (DEX removed from medium at 3 days, measured at day 6), 0.03±0.002. The “downregulation of MMP1 at the transcriptional level” value (“downregulation of MMP1” below) in data set [1] (DEX-treated cells for 6 days) came out at 500 fold.

Consider `CC(=O)OCC(=O)[C@@]1(O)CC[C@H]2[C@@H]3CCC4=CC(=O)C=C[C@]4(C)[C@H]3[C@@H](O)C[C@@]21C` [prednisolone, Prednisolone 21-acetate], for which the IOP increase result with sheep eyes (0.5% topically three times daily, within 2 weeks) is given as “approximately 2.5 fold”. In addition, in the data set on sheep eyes (0.5% topically three times daily), the “incidence of intraocular pressure elevation in treated eyes” value is on record as 100%. Moreover, the “time for IOP to decline to baseline after discontinuation” value with sheep eyes (in vivo) is on record as 1-3 weeks. Further, the “MMP1 cDNA levels (RQ)” value in data set [1] (80 μg/ml, 24 hours, HTM-109 cells) came out at 0.16±0.02. In data set [1] (shorter time periods), the “downregulation of MMP1” value was determined as 6.2 fold.

Consider `CC1(C)O[C@@H]2C[C@H]3[C@@H]4CCC5=CC(=O)C=C[C@]5(C)[C@@]4(F)[C@@H](O)C[C@]3(C)[C@]2(C(=O)CO)O1` [triamcinolone acetonide], for which the “IOP of the triamcinolone-treated eye on Day 15” value in data set [2] (FIGS. 11 and 12) is recorded as “above 25 mmHg”. Also, in data set [2] (sub-Tenon injection two weeks before), the “IOP of the eye given triamcinolone relative to fellow eye on Day 0” value is “about twice that of eye OS”. Moreover, in data set [3] (FIG. 9), the “IOP 15 days after sub-Tenon drug injection” value was “less than 20 mmHg”. The “IOP of the fellow eyes on Day 18” value in data set [3] (depot nearly consumed, eyes had also received Ad vectors on Day 4, n=4 each) was 10.5±0.4 mmHg and 12.4±0.2 mmHg. For the same compound, the “IOP on Day 4 after bilateral sub-Tenon injection” value was found to be 22.1±0.2 mmHg in data set [3] (eyes then injected with active MMP1 vector) and 22.6±0.8 mmHg in data set [3] (eyes then injected with mutated MMP1 vector). Besides, the “IOP on Day 4 after unilateral sub-Tenon injection” value in data set [3] (n=3, before null Ad injection) is on record as 25.2±0.4 mmHg. The “time the depot subsisted in the eye as judged by IOP” value in data set [3] (sub-Tenon depot) was in the range of 14 to 20 days. The “time the depots subsisted as determined by the IOP” value in data set [3] (sub-Tenon depot) is recorded as 2-3 weeks. Also, the “MMP1 cDNA levels (RQ)” value in data set [1] (0.1 mg/ml, 12 hours, HTM-109 cells) came out at 0.42±0.1. Also, the “downregulation of MMP1” value in data set [1] (shorter time periods) was determined as 2.4 fold.

The values are drawn from patent publication US20160144055A1, “GENE THERAPY VECTOR FOR TREATMENT OF STEROID GLAUCOMA” (priority 2009, published 2016).
